Experiments:
[1] = tested on: IGF1-induced S6 phosphorylation; experiment: Growth factor induced S6 ribosomal protein phosphorylation in primary human fibroblasts; assay type: cell-based; conditions: normal human dermal fibroblasts (NHDF), 10 nM IGF-1
Description: Phosphorylation of S6 ribosomal protein in response to growth factor stimulation of normal human dermal fibroblasts (NHDF) was used to assess compound potency in inhibiting IGF-1 induced signal transduction in cells, and selectivity towards EGF and PDGF stimulus. NHDF cells obtained from PromoCell (Heidelberg, Germany), were maintained at 37° C. in a humidified atmosphere with 5% CO2 in complete Fibroblast Growth Medium (PromoCell). For assay, NHDF were seeded in 384-well tissue culture plates (clear- and flat-bottomed black plates; Matrix Technologies Inc., Hudson, N.H., USA) at a density of 5000 cells/well in serum-free medium containing 0.1% bovine serum albumin (BSA) and incubated for 5 days. Starved cells were treated for 1 hour with desired doses of compounds and then stimulated for a further 2 hours with either 10 nM IGF-1 (Invitrogen Corp., CA, USA), 10 nM EGF (Gibco BRL, USA) or 1 nM PDGF-B/B (Roche Diagnostics GmbH, Germany). Cells were then fixed in PBS/3.7% paraformaldehyde for 20 minutes at room temperature, washed ×2 with PBS, and permeabilized with PBS/0.3% Triton X-100 for 15 minutes. Wells were then saturated with PBS/1% non-fat dry milk (Bio-Rad Laboratories, Hercules, Calif., USA) for 1 hour, and then probed for 1 hour at 37° C. with anti-phospho-S6 (Ser 235/236) antibody (Cell Signaling Technology, Beverly, Mass., USA, cat. #2211) at 1/200 dilution in PBS/1% milk/0.3% Tween 20. Wells were then washed twice with PBS, and incubated for 1 hour at 37° C. with PBS/1% milk/0.3% Tween 20+1 microg/mL DAPI (4,6-diamidino-2-phenylindole)+ 1/500 Goat anti-rabbit Cy5™-conjugated secondary antibody (Amersham Biosciences, Little Chalfont, Buckinghamshire, UK). […] Fluorescence images in the DAPI and Cy5™ channels were automatically acquired, stored and analysed using a Cellomics ArrayScan™ IV instrument (Cellomics, Pittsburgh, USA); the Cellomics Cytotoxicity Algorithm was used to quantify cytoplasmic fluorescence associated with phospho-S6 (Cy5™ signal parameter: “Mean Lyso Mass-pH”) for each cell in 10 fields/well, and eventually expressed as a mean population value. […]

ALK = molecular target: T1, ALK (Homo sapiens, UniProt Q9UM73); experiment: Biochemical assay for inhibitors of ALK kinase activity
T1 construct: ALK cytoplasmic domain, corresponding to residues 1060-1620; made in house; host or cells: Sf21 insect cells (baculovirus)
T1 sequence (Q9UM73 1060-1620): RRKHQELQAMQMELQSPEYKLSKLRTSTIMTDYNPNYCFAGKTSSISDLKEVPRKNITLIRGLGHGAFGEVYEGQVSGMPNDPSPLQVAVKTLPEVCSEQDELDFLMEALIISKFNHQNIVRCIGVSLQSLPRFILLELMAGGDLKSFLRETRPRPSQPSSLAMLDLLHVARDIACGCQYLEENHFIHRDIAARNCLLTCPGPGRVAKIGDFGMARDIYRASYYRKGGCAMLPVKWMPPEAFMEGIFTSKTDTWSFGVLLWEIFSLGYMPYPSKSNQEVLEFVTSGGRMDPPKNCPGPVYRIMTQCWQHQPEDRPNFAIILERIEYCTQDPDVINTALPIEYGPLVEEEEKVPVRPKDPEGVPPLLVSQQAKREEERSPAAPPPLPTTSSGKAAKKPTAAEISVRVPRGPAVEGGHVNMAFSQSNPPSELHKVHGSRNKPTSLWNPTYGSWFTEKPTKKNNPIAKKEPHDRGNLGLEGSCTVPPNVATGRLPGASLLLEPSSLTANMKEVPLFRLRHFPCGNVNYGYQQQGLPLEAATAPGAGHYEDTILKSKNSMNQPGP
Description: ALK cytoplasmic domain, corresponding to residues 1060-1620 (the numbers of the amino acid residues refer to the Genbank accession number NP 004295.2) was PCR amplified from a human testis cDNA library.
For cloning purposes, the oligonucleotides included attB sites in order to obtain an attB-flanked PCR product suitable for cloning using the Gateway technology (Invitrogen). Furthermore, for purification purposes, forward primer included a PreScission cleavage site (Amersham Biosciences). The resulting PCR product was cloned in the baculovirus expression vector pVL1393 (Invitrogen), Gateway-modified. For expression and purification purposes, a GST tag was added N-terminal to the ALK cytoplasmic domain. Cloning was performed according to the protocols described in the Gateway manual (Invitrogen).
Baculovirus was generated by cotransfecting Sf9 insect cells with expression vector and the viral DNA using the BaculoGold™ transfection kit (Pharmingen).
Recombinant protein was produced by infecting Sf21 insect cells at the density of 1×10^6 cells/mL with 30 mL viral supernatant per billion cells with shaking at 27° C. After 48 hours of infections the cells were recovered, pelleted and frozen at −80° C.
Cells were resuspended in lysis buffer (Tris-HCl 50 mM pH8, NaCl 150 mM, CHAPS 0.2%, DTT 20 mM, glycerol 20%, “Complete” protease inhibitor cocktail (Roche Diagnostics), Na3VO4 1 mM and lysed by liquid extrusion with a Gaulin homogenizer (Niro Soavi Italy). The lysate was cleared by centrifugation at 20000 g for 30 minutes and loaded on a Glutathione Sepharose 4B (Amersham Biosciences) column.
After extensive wash, recombinant protein was eluted with 10 mM Glutathione in 100 mM Tris-HCl pH8, 10% glycerol.
Affinity purified GST-ALK was loaded on a Heparin Sepharose™ FF (Amersham Biosciences) column and eluted with 50 mM NaCl, 25 mM TRIS pH 7.5, 2 mM DTT, 20% glycerol.
The eluted fractions were pooled and dialyzed against 150 mM NaCl, 50 mM Tris-HCl pH 7.4, 2 mM DTT, 20% glycerol.
The in vitro kinase inhibition assay was conducted in the same way as described for IGF-1R. […]

Compound | IC50 [1] [nM] | IC50 (ALK) [nM]
CN1CCN(c2ccc(C(=O)Nc3n[nH]c4ccc(S(=O)(=O)c5ccccc5)cc34)cc2)CC1 [Compound 1, N-(5-Benzenesulfonyl-1H-indazol-3-yl)-4-(4-methyl-piperazin-1-yl)-benzamide] | > 10000 | 340
CN1CCN(c2ccc(C(=O)Nc3n[nH]c4ccc(S(=O)(=O)c5ccccc5)cc34)c(NC(=O)c3ccc[nH]3)c2)CC1 [Compound 33, 1H-pyrrole-2-carboxylic acid [2-(5-benzenesulfonyl-1H-indazol-3-ylcarbamoyl)-5-(4-methyl-piperazin-1-yl)-phenyl]amide] | 270 | 34
CN1CCN(c2ccc(C(=O)Nc3n[nH]c4ccc(S(=O)(=O)c5ccccc5)cc34)c(NC(=O)[C@@H]3CCCO3)c2)CC1 [Compound 36, (S)-Tetrahydro-furan-2-carboxylic acid [2-(5-benzenesulfonyl-1H-indazol-3-ylcarbamoyl)-5-(4-methyl-piperazin-1-yl)-phenyl]-amide] | 1200 | 170

— US8114865B2, “Indazole derivatives as kinase inhibitors for the treatment of cancer” (Nerviano Medical Sciences S.R.L., priority 2006, dated 2012)
